Experimental data as given in patent US20050119288A1, “Dosing schedule for a novel anticancer agent” (Pfizer Inc, priority 2003, published 2005).

Experiments:
[1] = Pharmacokinetics in MDA-MB-453 tumor-bearing mice; assay type: in vivo; settings: day 29; for Cave0-4 h / AUC(0-t) / Cmax: PO; for AUC(0-t) / Cmax: female, athymic, mouse, blood, po; for AUC(0-t): read-out: AUC0-4 h; for Cmax: read-out: Cmax 0.5 h
Method: Study Design: Exponentially growing MDA-MB-453 cells (DMEM/F12 with 10% FBS, and pen/strep [Gibco]) were harvested and inoculated SC (5 million cells/animal) into female athymic mice. MDA-MB-453 tumor bearing mice (˜100 mm^3 in size, N=64) were randomized in 8 groups consisting 8 animals each. Animals were treated with vehicle (PO, QD or BID) or the test compound (PO, QD or BID) as described in Table 6. The tumor measurements and body weight changes were obtained on days 1, 3, 7, 10, 14, 17, 21, 24, and 29. Tumor volume was calculated by the following formula: Tumor volume (mm^3)═(W×W)/2×L (L=length & W=width). Blood samples (˜50 μl) were isolated at 0.5, 1, 2, 4 and 8 hrs after dosing on day 29 for PK-analysis. Tumors were isolated at 0.5 hr post-dosing on day 29 for PD-analysis by ELISA.

in vivo = settings: athymic, mouse, plasma
Method: The test compound was either administered using tail vein infusion or orally.
A 1.15 mg/ml solution of the test compound was infused IV at 550 μl/hr for 2 minute ramped infusions followed by 50 μl/hr for 15 min or 4 hour daily infusions. (Projection was based on Cl of the test compound). Athymic female mice bearing FRE/erbB2 tumors (˜100 mm^3 in size) were treated with vehicle, the test compound orally or the test compound intravenously. […] The study was carried out for 7 days. Plasma and tumor samples were isolated for PK and PD analysis at the termination of study.

[2] = target: erbB2 receptor autophosphorylation (Homo sapiens, UniProt P04626); test: p-erbB2 reduction in BT-474 tumors by ELISA; assay type: in vivo; settings: 0.5 hr post-dosing on day 22; for inhibition in vivo at 30 mg/kg / inhibition in vivo at 50 mg/kg: BT-474, po, 0.5 h; for % p-erbB2 reduction: PO
erbB2 receptor autophosphorylation, sequence (P04626 23-1255): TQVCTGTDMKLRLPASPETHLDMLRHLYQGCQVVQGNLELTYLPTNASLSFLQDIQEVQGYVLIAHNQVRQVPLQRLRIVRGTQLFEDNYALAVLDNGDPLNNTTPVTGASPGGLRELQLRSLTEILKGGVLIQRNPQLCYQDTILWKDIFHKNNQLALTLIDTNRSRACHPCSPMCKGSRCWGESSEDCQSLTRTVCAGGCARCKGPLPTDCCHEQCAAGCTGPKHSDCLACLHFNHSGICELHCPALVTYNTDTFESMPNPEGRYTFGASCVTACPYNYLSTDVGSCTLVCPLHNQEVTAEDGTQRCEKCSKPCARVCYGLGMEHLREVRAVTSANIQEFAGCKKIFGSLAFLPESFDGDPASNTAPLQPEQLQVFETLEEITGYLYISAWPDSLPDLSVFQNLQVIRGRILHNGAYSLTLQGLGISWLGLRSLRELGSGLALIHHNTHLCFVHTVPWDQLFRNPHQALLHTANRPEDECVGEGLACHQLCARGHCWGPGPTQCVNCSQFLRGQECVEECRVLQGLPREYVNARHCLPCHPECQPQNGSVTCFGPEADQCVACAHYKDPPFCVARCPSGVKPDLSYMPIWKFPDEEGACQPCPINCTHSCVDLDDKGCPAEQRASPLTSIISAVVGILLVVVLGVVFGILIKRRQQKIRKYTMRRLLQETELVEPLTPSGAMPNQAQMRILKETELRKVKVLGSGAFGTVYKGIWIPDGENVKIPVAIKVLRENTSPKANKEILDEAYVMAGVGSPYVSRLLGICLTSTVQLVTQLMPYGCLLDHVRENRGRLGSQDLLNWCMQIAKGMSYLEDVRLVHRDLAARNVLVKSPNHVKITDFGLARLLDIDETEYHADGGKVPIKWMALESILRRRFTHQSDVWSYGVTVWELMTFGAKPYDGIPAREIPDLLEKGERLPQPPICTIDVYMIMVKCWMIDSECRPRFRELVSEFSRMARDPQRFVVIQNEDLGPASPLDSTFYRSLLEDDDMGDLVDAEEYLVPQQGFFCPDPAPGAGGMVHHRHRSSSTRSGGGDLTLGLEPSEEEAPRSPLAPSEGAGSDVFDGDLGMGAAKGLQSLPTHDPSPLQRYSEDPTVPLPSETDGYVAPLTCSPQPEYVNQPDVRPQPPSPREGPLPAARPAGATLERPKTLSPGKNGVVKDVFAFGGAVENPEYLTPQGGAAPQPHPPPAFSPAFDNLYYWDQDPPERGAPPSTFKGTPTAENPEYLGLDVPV
Method: Exponentially growing BT-474 cells (RPMI 1640 with 10 mM HEPES, 10% FBS, and pen/strep [Gibco]) were harvested and inoculated SC (5 million cells/animal) into female athymic mice. Trochar pieces of BT-474 tumors were then implanted into the right flank of animals. BT-474 tumor bearing mice (50-320 mm^3 in size, N=40) were randomized in 7 groups consisting 5-6 animals each. Animals were treated with vehicle (PO, BID) or the test compound (PO, QD or BID) as described in Table 4. The tumor measurements and body weight changes were obtained on days 1, 6, 11, 15 and 22. Tumor volume was calculated by the following formula: Tumor volume (mm^3)═(W×W)/2×L (L=length & W=width). Blood samples (˜50 μl) were isolated at 0.5, 1, 2, 4 and 8 hrs after dosing on day 22 for PK-analysis. Tumors were isolated at 0.5 hr post-dosing on day 22 for PD-analysis by ELISA.

[3] = Pharmacokinetics in SK-OV-3 tumor-bearing mice; assay type: in vivo; settings: for Cave0-4 h / AUC(0-t) / Cmax: PO; for AUC(0-t) / Cmax: female, athymic, mouse, blood, po; for AUC(0-t): read-out: AUC0-4 h; for Cmax: read-out: Cmax 0.5 h
Method: SK-OV-3 cells obtained from ATCC (Rockville, Md.) were grown in McCoy's medium containing 10% fetal bovine serum and pen/strep. Exponentially growing cells were harvested and inoculated SC (5 million cells/animal) into female athymic mice. The tumor measurements and body weight changes were obtained on days 1, 3, 6, 10, 13 and 18. Tumor volume was calculated by the following formula: Tumor volume (mm^3)═(W×W)/2×L (L=length & W=width). Blood samples (˜50 μl) were isolated at 0.5, 1, 2, 4 and 8 hrs after dosing on day 18 for PK-analysis. Tumors were isolated at 0.5 hr post-dosing on day 18 for PD-analysis by ELISA. The p-erbB2 reduction, tumor volume and body weight changes in control and test compound treated animals are shown below in Table 2.

[4] = BID, 30 mg/kg (Total Daily Dose = 60 mg/kg)

COCC(=O)NC/C=C/c1ccc2ncnc(Nc3ccc(Oc4ccc(C)nc4)c(C)c3)c2c1 [Test Compound, E-2-Methoxy-N-(3-{4-(3-methyl-4-(6-methyl-pyridin-3-yloxy)-phenylamino)-quinazolin-6-yl}-allyl)-acetamide]
Cave0-4 h ([1]; 25 mg/kg, BID): 215 ng/mL
Cave0-4 h ([1]; 50 mg/kg, BID): 509 ng/mL
Cave0-4 h ([1]; 50 mg/kg, QD): 591 ng/mL
Cave0-4 h ([1]; 100 mg/kg, BID): 1710 ng/mL
Cave0-4 h ([1]; 100 mg/kg, QD): 3120 ng/mL
Cave0-4 h ([1]; 200 mg/kg, QD): 6510 ng/mL
Cave0-4 h, 200 mg/kg QD group relative to 100 mg/kg BID group [1]: 3.8 fold
Cmax, 100 mg/kg QD group relative to 50 mg/kg QD and 50 mg/kg BID groups [1]: approximately 4 fold
Cmax, 200 mg/kg QD group relative to 100 mg/kg BID group [1]: 2.4 fold
AUC(0-t) ([1]; 25 mg/kg, BID): 857 ng·h/mL
Cmax ([1]; 25 mg/kg, BID): 952 ng/mL
AUC(0-t) ([1]; 50 mg/kg, BID): 2040 ng·h/mL
Cmax ([1]; 50 mg/kg, BID): 2390 ng/mL
AUC(0-t) ([1]; 50 mg/kg, QD): 2360 ng·h/mL
Cmax ([1]; 50 mg/kg, QD): 2760 ng/mL
AUC(0-t) ([1]; 100 mg/kg, BID): 6840 ng·h/mL
Cmax ([1]; 100 mg/kg, BID): 6870 ng/mL
AUC(0-t) ([1]; 100 mg/kg, QD): 12500 ng·h/mL
Cmax ([1]; 100 mg/kg, QD): 9770 ng/mL
AUC(0-t) ([1]; 200 mg/kg, QD): 26100 ng·h/mL
Cmax ([1]; 200 mg/kg, QD): 16700 ng/mL
AUC(0-t) (in vivo): ~985 ng·h/mL
Cmax (in vivo): ~1200 ng/mL
concentration at 7 days (in vivo; female, intravenous, 1.4 mg/kg): 448 ± 141 ng/mL
concentration at 0.5 h (in vivo; female, oral, 25 mg/kg): 1460 ng/mL
inhibition in vivo at 30 mg/kg [2, 4]: 26%
inhibition in vivo at 50 mg/kg ([2]; BID, 50 mg/kg (Total Daily Dose = 100 mg/kg)): ~75%
inhibition in vivo at 30 mg/kg ([2]; QD, 30 mg/kg): 57%
inhibition in vivo at 50 mg/kg ([2]; QD, 50 mg/kg): ~75%
% p-erbB2 reduction ([2]; BID, 15 mg/kg (Total Daily Dose = 30 mg/kg)): below the limit of detection
% p-erbB2 reduction [2, 4]: 26%
% p-erbB2 reduction ([2]; QD, 15 mg/kg, 15 mg/kg): below the limit of detection
Cave0-4 h ([3]; 25 mg/kg, BID, day 18): 390 ng/mL
AUC0-4 h and Cave0-4 h, QD group compared to BID dosed group ([3]; 50 mg/kg QD vs 25 mg/kg BID, day 18): approximately 2 fold
Cave0-4 h ([3]; 50 mg/kg, BID, day 18): 1050 ng/mL
Cave0-4 h ([3]; 50 mg/kg, QD, day 18): 853 ng/mL
Cave0-4 h ([3]; 100 mg/kg, BID, day 18): 2330 ng/mL
Cave0-4 h ([3]; 100 mg/kg, QD, day 18): 4080 ng/mL
Oral absorption ([3]; 200 mg/kg QD dosing): non-linear
Cave0-4 h ([3]; 200 mg/kg, QD, day 18): 3780 ng/mL
Cmax, 50 mg/kg QD compared to 25 mg/kg BID ([3]; day 18): approximately 2 fold
AUC(0-t) ([3]; 25 mg/kg, BID, day 18): 1560 ng·h/mL
Cmax ([3]; 25 mg/kg, BID, day 18): 1780 ng/mL
AUC(0-t) ([3]; 50 mg/kg, BID, day 18): 4180 ng·h/mL
Cmax ([3]; 50 mg/kg, BID, day 18): 3880 ng/mL
AUC(0-t) ([3]; 50 mg/kg, QD, day 18): 3410 ng·h/mL
Cmax ([3]; 50 mg/kg, QD, day 18): 3640 ng/mL
AUC(0-t) ([3]; 100 mg/kg, BID, day 18): 9330 ng·h/mL
Cmax ([3]; 100 mg/kg, BID, day 18): 8060 ng/mL
AUC(0-t) ([3]; 100 mg/kg, QD, day 18): 16300 ng·h/mL
Cmax ([3]; 100 mg/kg, QD, day 18): 12100 ng/mL
AUC(0-t) ([3]; 200 mg/kg, QD, day 18): 15100 ng·h/mL
Cmax ([3]; 200 mg/kg, QD, day 18): 10200 ng/mL
